{"source": "patent US5463127A", "about": "“Process for preparation of halohydroxypropyl-trialkylammonium halides” (The Dow Chemical Company, priority 1995, dated 1995)", "origin": "cited, not measured here", "conditions": "aqueous solution", "note": "Read-outs that look alike come from different tables or passages of the source."}
{"compound": "CN(C)C", "note": "[Trimethylamine, trimethylamine]", "values": [{"measurement": "pKa of Trimethylamine", "setting": "0 °C.", "value": 10.355}, {"measurement": "pKa of Trimethylamine", "setting": "10 °C.", "value": 10.128}, {"measurement": "pKa of Trimethylamine", "setting": "20 °C.", "value": 9.907}, {"measurement": "pKa of Trimethylamine", "setting": "30 °C.", "value": 9.692}, {"measurement": "pKa of Trimethylamine", "setting": "40 °C.", "value": 9.477}, {"measurement": "pKa of Trimethylamine", "setting": "50 °C.", "value": 9.270}]}
